Measurements reported in PubChem BioAssay AID1963969 (Molecular Pharmacology Branch, DTP, NCI, 2024).
Several values for one entry are separate records, joined by “and”; a condition that tells them apart may be missing. Equal values may be shown once.

System: 817829-284-R-J1-PDC multi-cell spheroid viability
Test: Anticancer human tumor 817829-284-R-J1-PDC patient-derived colon adenocarcinoma cell line growth inhibition [PI3K]
Details: for viability, T/C: stronger effect = lower value
From the text: Combinatorial screen of targeted agents with the PI3K inhibitors inavolisib, alpelisib, duvelisib, and copanlisib in multi-cell type tumor spheroids
A high-throughput screen of multi-cell type tumor spheroids was designed to identify active combinations of targeted small molecules and PI3K pathway inhibitors. Complex spheroids include a stromal component modeled by human endothelial cells (HUVEC) and fibroblasts modeled by human mesenchymal stem cells (MSCs). The concentration ranges selected for each drug and investigational agent were based upon clinically achievable concentrations if the clinical Cmax of the agent was known.
Compounds. The drugs and investigational agents: inavolisib (NSC800729), alpelisib (NSC765974), duvelisib (NSC772469), copanlisib (NSC816437), ipatasertib (NSC767898), afuresertib (NSC778305), talazoparib (NSC767125), sapanisertib (NSC764658), selumetinib (NSC741078), tovorafenib (DAY101, NSC766906), vemurafenib (NSC761431), ravoxertinib (NSC781343), sotorasib (NSC818433), MRTX1133 (NSC 836407), abemaciclib (NSC 768073), palbociclib (NSC758247), venetoclax (NSC 766270), SY5609 (NSC837396), enzalutamide (NSC755605), and darolutamide (NSC825331), were obtained from the National Cancer Institute (NCI) Developmental Therapeutics Program Chemical Repository. The FDA-approved anticancer drug set is available from the NCI Developmental Therapeutics Program. […] The stock solutions were prepared in dimethyl sulfoxide (DMSO, Sigma-Aldrich, St. Louis, MO, cat. D2650) at 800-fold the tested concentration and stored at -70 degrees C prior to their use. All drugs and investigational agents were tested over a range starting from a high concentration at or near the clinical Cmax and decreasing in half-log increments. If the clinical Cmax for an agent had not been determined, the highest concentration tested was 10 microM.
Cell Culture. All cells were maintained in an incubator at 37 degrees C and 5% CO2 with 95% humidity. The PDC lines were cultured according to standard operating procedures established by the NCI PDMR (https://pdmr.cancer.gov/sops/default.htm). All PDCs were thawed and cultured in Matrigel-coated flasks prepared with a working solution of 1X Ham's F-12 nutrient mix, without supplementation (Invitrogen, Waltham, MA, cat. 11765054), 100 U/mL penicillin-streptomycin (Invitrogen, cat. 15140122), and 2.5% Matrigel (Corning Inc., Corning, NY, cat. 354248) for the first three passages. The 354836-022-R-J1-PDC, 475296-252-R-J1-PDC, and 997726-040-R-J2-PDC lines were cultured in 6A media, which includes advanced DMEM/F-12 (Thermo Fisher Scientific, cat. 12634028), 10 mM HEPES (Thermo Fisher Scientific, cat. 15630080), 1X GlutaMAX supplement (Thermo Fisher Scientific, cat. 35050061), 0.1 mg/mL primocin (InvivoGen, San Diego, CA, cat. ant-pm-2), 10% defined fetal bovine serum, heat inactivated (HyClone Laboratories Inc., Logan, UT, cat. SH30070.03HI), 50% L-WRN conditioned media (ATCC, cat. CRL-3276), 1.25 mM N-Acetyl-L-cysteine (Sigma-Aldrich, cat. A9165), 10 mM nicotinamide (Sigma-Aldrich, cat. N0636), 1X B-27 supplement (Thermo Fisher Scientific, cat. 17504044), 1X N-2 supplement (Thermo Fisher Scientific, cat. 17502048), and 10 microM Y-27632 dihydrochloride (Tocris Bioscience, Bristol, United Kingdom, cat. 1254). The 624824-186-R-J2-PDC line was cultured in 6C/Colon 1B media, which includes all 6A media components plus 50 ng/mL human EGF recombinant protein (Thermo Fisher Scientific, cat. PHG0311). […]

[1] = compound alone, run of 04/24/2023
[2] = compound alone, run of 04/25/2023
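Further: spheroids exposed to agents for seven days before readout.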
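Wherever viability, T/C is given: percent of vehicle DMSO control viability which is 100%.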

| SMILES | viability, T/C (compound 0.0316 µM) | viability, T/C (compound 0.1 µM) | viability, T/C (compound 0.316 µM) | viability, T/C (compound 1 µM) | viability, T/C (compound 3.16 µM) | viability, T/C (compound 10 µM) | IC50 (curve of compound) | also measured |
| --- | --- | --- | --- | --- | --- | --- | --- | --- |
| C#Cc1c(F)ccc2cc(O)cc(-c3ncc4c(N5CC6CCC(C5)N6)nc(OCC56CCCN5CC(F)C6)nc4c3F)c12 (configuration not stated) | 83.3% and 99% | 95.1% and 72.9% | 69.9% and 83% | 68.4% and 99.7% | 87.7% and 88.6% | 33.2% and 56.2% | 6660 nM and > 10000 nM | – |
| C=CC(=O)N1CCN(c2nc(=O)n(-c3c(C)ccnc3C(C)C)c3nc(-c4c(O)cccc4F)c(F)cc23)C(C)C1 (configuration not stated) | 90.5% and 112% | 107% and 70.5% | 70.2% and 97.6% | 104% and 120% | 85.3% and 104% | 44.3% and 48.8% | 8660 nM and 9740 nM | – |
| CC(=O)c1c(C)c2cnc(Nc3ccc(N4CCNCC4)cn3)nc2n(C2CCCC2)c1=O | 54.6% [middle of 4 runs] | 39.3% [middle of 4 runs] | – | – | – | – | – | – |
| CC(C)NCC(C(=O)N1CCN(c2ncnc3c2C(C)CC3O)CC1)c1ccc(Cl)cc1 (configuration not stated) | 74.6% and 90.4% | 61.1% and 54.8% | 38.5% and 41.4% | 28% and 27.8% | 21% and 17.3% | 10.7% and 10.9% | 179 nM and 168 nM | – |
| CC(C)n1nc(-c2ccc3oc(N)nc3c2)c2c(N)ncnc21 | 58.9% and 37.7% and 41.6% | 21.2% and 24% and 17.7% | – | – | – | – | 33 nM and 20.9 nM and 24.6 nM | viability, T/C (compound 0.000316 µM): 54.7% and 69.8% and 94.8%; viability, T/C (compound 0.001 µM): 120% and 96.8% and 70%; viability, T/C (compound 0.00316 µM): 68.2% and 77.3% and 63.2%; viability, T/C (compound 0.01 µM): 52.8% and 72.2% and 93.4% |
| CC(Cn1ccc(-c2ccc(C#N)c(Cl)c2)n1)NC(=O)c1cc(C(C)O)[nH]n1 (configuration not stated) | – | – | – | – | – | – | > 10000 nM | – |
| CC(Nc1ccc2c(c1)OCCn1cc(N3C(=O)OCC3C(F)F)nc1-2)C(N)=O (configuration not stated) | – | – | – | – | – | – | – | viability, T/C (compound 0.00316 µM): 82.8% [middle of 6 runs]; IC50 [1]: > 1000 nM and 280 nM and 1000 nM |
| CC(Nc1ncnc2nc[nH]c12)c1cc2cccc(Cl)c2c(=O)n1-c1ccccc1 (configuration not stated) | 98.7% and 80.4% | 78.1% and 107% | 98.9% and 104% | 89% and 74.1% | 82.9% and 94.8% | 66% and 70.4% | – | IC50 [2]: > 10000 nM |
| CC1(C)CCC(CN2CCN(c3ccc(C(=O)NS(=O)(=O)c4ccc(NCC5CCOCC5)c([N+](=O)[O-])c4)c(Oc4cnc5[nH]ccc5c4)c3)CC2)=C(c2ccc(Cl)cc2)C1 | 66.2% and 63.1% and 99.8% | 60.4% and 90.3% and 105% | 60.5% and 85.7% and 66.8% | 84.6% and 95.4% and 97.1% | 98.1% and 98.5% and 56.7% | – | > 10000 nM and 5630 nM and 3670 nM | – |
| CC1(C)CCC(Nc2ncc(C(F)(F)F)c(-c3c[nH]c4c(P(C)(C)=O)c(C#N)ccc34)n2)CN1 (configuration not stated) | 25.3% and 24.7% | 25% and 26.2% | 27.4% and 32.9% | 30.6% and 31.8% | 32.7% and 38.6% | 0.65% and 1.29% | < 31.6 nM | – |
| CCCS(=O)(=O)Nc1ccc(F)c(C(=O)c2c[nH]c3ncc(-c4ccc(Cl)cc4)cc23)c1F | 91.8% and 75.6% and 87.7% | 75.9% and 81.4% and 57.4% | 82.7% and 65.9% and 44.2% | 90% and 62.3% and 54.9% | 68% and 89.2% and 50.6% | 7.12% and 5.31% and 3% | 4450 nM and 4780 nM and 1420 nM | – |
| CCN1CCN(Cc2ccc(Nc3ncc(F)c(-c4cc(F)c5nc(C)n(C(C)C)c5c4)n3)nc2)CC1 | 61.9% and 73.5% | 68.2% and 59.2% | 55.8% and 49.5% | 58% and 51% | – | – | > 1000 nM | viability, T/C (compound 0.00316 µM): 81.3% and 60.8%; viability, T/C (compound 0.01 µM): 103% and 82.2% |
| CNC(=O)c1ccc(N2C(=S)N(c3ccc(C#N)c(C(F)(F)F)c3)C(=O)C2(C)C)cc1F | 86.9% and 87.2% and 88.4% | 93.2% and 97.5% and 76.6% | 70.6% and 71.9% and 77.2% | 99.3% and 68.8% and 80.3% | 84.2% and 97.4% and 67.9% | 65.4% and 29% and 68.9% | > 10000 nM and 6480 nM | – |
| COc1c(OCCCN2CCOCC2)ccc2c3n(c(=NC(=O)c4cnc(N)nc4)nc12)CCN3 | 60.5% [middle of 6 runs] | 39.5% [middle of 6 runs] | 21.5% [middle of 6 runs] | 10.1% [middle of 6 runs] | – | – | – | viability, T/C (compound 0.01 µM): 83.5% [middle of 6 runs]; IC50 [2]: 58.3 nM [middle of 6 runs] |
| C[C@@H](NC(=O)c1ncnc(N)c1Cl)c1ncc(C(=O)Nc2cc(C(F)(F)F)c(Cl)cn2)s1 | 97.5% and 79.4% | 79.2% and 114% | 89.2% and 87.8% | 70.5% and 67% | 113% and 64.2% | 59.5% and 101% | > 10000 nM | – |
| Cc1nc(NC(=O)N2CCCC2C(N)=O)sc1-c1ccnc(C(C)(C)C(F)(F)F)c1 (configuration not stated) | – | – | – | – | – | 68.7% [middle of 6 runs] | – | IC50 [1]: > 10000 nM |
| Cn1cnc2c(F)c(Nc3ccc(Br)cc3Cl)c(C(=O)NOCCO)cc21 | – | – | – | – | – | – | 901 nM and 649 nM | viability, T/C (compound 0.00949 µM): 87.3% and 90.1%; viability, T/C (compound 0.03 µM): 70.7% and 64.5%; viability, T/C (compound 0.0949 µM): 65% and 73.3%; viability, T/C (compound 0.3 µM): 62.5% and 52.7%; viability, T/C (compound 0.949 µM): 55.5% and 55.6%; viability, T/C (compound 3 µM): 33.4% and 21.9% |
| Cn1ncc(Cl)c1-c1cc(C(=O)NC(CN)Cc2cccc(F)c2)sc1Cl (configuration not stated) | 52.7% and 85.2% | 47.4% and 54.1% | 31.6% and 27.1% | 18.3% and 22.5% | 16.1% and 20.2% | 76.6% and 13.4% | < 31.6 nM and 118 nM | – |
| Cn1nccc1Nc1nccc(-c2ccn(C(CO)c3ccc(Cl)c(F)c3)c(=O)c2)n1 (configuration not stated) | 100% and 96.5% | 68.5% and 79.2% | 84.3% and 83.6% | 110% and 86.8% | 71.2% and 81.6% | 26% and 39.2% | 5420 nM and 7460 nM | – |
| Cn1ncnc1[C@H]1c2n[nH]c(=O)c3cc(F)cc(c23)N[C@@H]1c1ccc(F)cc1 | 55.6% and 55% | 41.3% and 46.6% | – | – | – | – | 51.4 nM and 62.8 nM | viability, T/C (compound 0.000316 µM): 113% and 70.3%; viability, T/C (compound 0.001 µM): 106% and 90.1%; viability, T/C (compound 0.00316 µM): 83.9% and 67%; viability, T/C (compound 0.01 µM): 75.3% |
